Source: PMC9962638, “Integrating Siderophore Substructures in Thiol-Based Metallo-β-Lactamase Inhibitors” (Molecules, 2023)

biological target: T1, NDM-1 (Klebsiella pneumoniae, UniProt C7C422); assay: fluorescence enzyme assay, fluorocillin hydrolysis; format: biochemical
T1 construct: gene blaNDM-1; recombinant, expressed in E. coli
From the text: fluorescence enzyme assay, fluorocillin hydrolysis on NDM-1

T1 sequence (C7C422 29-270 limits assumed): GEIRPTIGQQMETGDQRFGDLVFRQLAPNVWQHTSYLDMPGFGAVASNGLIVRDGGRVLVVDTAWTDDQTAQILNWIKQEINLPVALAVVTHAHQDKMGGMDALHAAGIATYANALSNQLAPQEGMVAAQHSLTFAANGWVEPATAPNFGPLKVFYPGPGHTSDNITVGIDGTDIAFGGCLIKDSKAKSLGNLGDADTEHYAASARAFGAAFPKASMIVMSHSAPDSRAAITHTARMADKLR

SMILES	IC50 [nM]
C[C@H](CS)C(=O)N1CCN(C(=O)CCc2ccc(O)c(O)c2)C[C@@H]1C(=O)O [compound 3, (R)-4-(3-(3,4-dihydroxyphenyl)propanoyl)-1-((S)-3-mercapto-2-methylpropanoyl)piperazine-2-carboxylic acid]	130 ± 17
O=C(O)[C@H]1CCCCN1C(=O)C(CS)Cc1cccc(O)c1O (stereo partly drawn) [compound 2, (2R)-1-(2-(2,3-dihydroxybenzyl)-3-mercaptopropanoyl)piperidine-2-carboxylic acid]	4300 ± 440
COc1ccc(CCC(=O)N2CCN(C(=O)[C@H](C)CS)[C@@H](C(=O)O)C2)cc1OC [compound 18, (R)-4-(3-(3,4-dimethoxyphenyl)propanoyl)-1-((S)-3-mercapto-2-methylpropanoyl)piperazine-2-carboxylic acid]	220 ± 16
COc1cccc(CC(CS)C(=O)N2CCCC[C@@H]2C(=O)O)c1OC (stereo partly drawn) [compound 12, (2R)-1-(2-(2,3-dimethoxybenzyl)-3-mercaptopropanoyl)piperidine-2-carboxylic acid]	1900 ± 270
